Test results published in US9808477B2 (Macau University of Science and Technology, priority 2015, dated 2017).
Like-named read-outs stand apart in the source and are kept apart here.

Assays:
Format in all cases: cell-based, human
[1] = tested on: A549/T cells (PTX-resistant, ABCB1-overexpressing NSCLC cells); test: SRB cell cytotoxicity / MDR reversal assay; details: for fold reversal: drug alone (reference)
Procedure: (§1) Sulphorhodamine B (SRB) assays were used for cell density determination, based on sensitive measure of total cellular protein, which perform similarly compared with other proliferation assays such as MTT assay. Briefly, cells were seeded into flat bottomed 96-well plates at an initial density of 7.5×10^3 per well before treatment. […] After removing the medium, cells were fixed in 10% trichloroacetic acid for 1 h at 4° C. and then washed with water five times. 0.4% SRB dissolved in 1% v/v acetic acid was added and incubated […] for staining. The cells were quickly washed with 1% acetic acid and left to dry overnight. The protein bound SRB was solubilized by adding 200 μl 10 mM Tris buffer per well and was measured at wavelengths 490 nm using a plate reader (Spectra MAX 250; Molecular Devices, Sunnyvale, Calif.). The optical density of SRB in each well is directly proportional to the cell number.

[2] = tested on: A2780/T cells (PTX-resistant, ABCB1-overexpressing ovarian cancer cells); test: cells; details: for IC50: read-out: IC50 ± SD
Procedure: as §1

A2780/T cells [3] = test: Intracellular accumulation of doxorubicin and Flutax-2; details: 8 h, 4.5 μM nobiletin or 20 μM QND
A2780/T cells [4] = test: Combination index, Chou-Talalay method (CalcuSyn); details: Homo sapiens, A2780, read-out: Dose PTX at Fa = 0.5 (ED50), CalcuSyn simulation, A2780/T; PTX dose, alone or in the combination
A2780 cells = test: Cell cycle analysis (PI, flow cytometry); details: A2780, PTX 0.01 μM
A2780/T cells [5] = test: Colony formation assay; details: 9 μM nobiletin alone or 0.94 μM PTX alone, 12 days
Text: The A2780/T cells were trypsinized and plated in fresh culture medium at a density of 600 cells/9.6 cm^2 plate. Subsequently, the cells were fixed with 70% ethanol and stained with crystal violet (0.5% in ethanol). The plates were rinsed with phosphate buffered saline (PBS), and the colony numbers were counted using the software of Quantity one-Colony counting.

A2780/T cells [6] = test: Cell cycle analysis (PI, flow cytometry); details: 0.94 μM PTX, no nobiletin
Procedure: A2780/T cells were harvested 24 hours, 48 hours, or 72 hours after treatment and washed twice with ice-cold PBS. The cells were fixed and permeabilized with 70% ice-cold ethanol overnight at 4° C. or 2 h at −20° C. After one additional wash in PBS, cells were stained with a staining solution containing propidium iodide (PI) ([…]) and RNase A (250 μg/ml) for 30 min at room temperature. They were then pelleted, washed and suspended in PBS to a final concentration of 1×10^6/ml and analyzed by flow cytometry BD FACS Aria (BD Biosciences, San Jose, Calif.).

A2780/T cells [7] = test: Apoptosis analysis by Annexin-V/PI double staining; details: 9 μM nobiletin alone or 0.94 μM PTX alone
Procedure: After treatment, 1×10^6 cells were collected, washed and suspended in 100 μl of binding buffer (10 mM N-2-hydroxyethylpiperazine-N,-2-ethanesulfonic acid/NaOH, 140 mM NaCl, 2.5 mM CaCl2, pH 7.4). Apoptotic cells were identified by double supravital staining with 5 μl recombinant FITC (fluorescein isothiocyanate)-conjugated Annexin-V and 5 μl PI (50 μg/ml). The cells were stained for […] at room temperature in the dark, and analyzed by fluorescence-activated cell sorting cater-plus flow cytometry. Data acquisition and analysis were performed in BD FACS Aria with FlowJo software.

[8] = Homo sapiens, A549, 48 h, 48 h, SRB, drug alone (no nobiletin)
[9] = A2780/T, 48 h, drug +0.5 μM nobiletin (N)
[10] = A2780/T, 48 h, drug +4.5 μM nobiletin (N)
[11] = Homo sapiens, A2780, 48 h, A2780/T, 48 h, SRB, drug alone (no nobiletin)
[12] = A2780/T, 48 h, drug +1.5 μM nobiletin (N)

SMILES	IC50 [1, 8]	Fold reversal (IC50 without / with nobiletin) ([1]; drug +0.5 μM nobiletin)	IC50 ([1]; drug +0.5 μM nobiletin (N))	Fold reversal (IC50 without / with nobiletin) ([1]; drug +1.5 μM nobiletin)	IC50 ([1]; drug +1.5 μM nobiletin (N))	Fold reversal (IC50 without / with nobiletin) ([1]; drug +4.5 μM nobiletin)	IC50 ([1]; drug +4.5 μM nobiletin (N))	fold reversal [1]	fold reversal [2]	IC50 [2, 9]	IC50 [2, 10]	IC50 [2, 11]	degree of resistance: mean IC50 in A2780/T cells relative to A2780 [2]	IC50 ([2]; Homo sapiens, A2780, 48 h)	IC50 [2, 12]	also measured
CC(=O)O[C@@]12CO[C@@H]1C[C@H](O)[C@@]1(C)C(=O)[C@H](O)C3=C(C)[C@@H](OC(=O)[C@H](O)[C@@H](NC(=O)OC(C)(C)C)c4ccccc4)C[C@@](O)([C@@H](OC(=O)c4ccccc4)[C@H]21)C3(C)C [Docetaxel]	13.4 ± 1.09 µM	1.59 ± 0.01 fold	8.43 ± 0.69 µM	5.05 ± 0.82 fold	2.67 ± 0.22 µM	19.18 ± 4.59 fold	0.71 ± 0.11 µM	1.00 fold	1.00 fold	8.97 ± 1.46 µM	1.13 ± 0.18 µM	17.9 ± 2.89 µM	–	–	–	Fold reversal (IC50 without / with nobiletin) ([1]; drug +4.5 μM nobiletin, listed as docetaxel): 19.18 fold; IC50 ([2]; Homo sapiens, A2780, 48 h, A2780/T, 48 h, drug +1.5 μM nobiletin (N)): 3.57 ± 0.58 µM
C=C[C@H]1C[N@@]2CC[C@H]1C[C@@H]2[C@@H](O)c1ccnc2ccc(OC)cc12 [QND, quinidine]	–	–	–	–	–	–	–	–	–	–	–	–	–	–	–	intracellular accumulation of DOX (A2780/T cells [3]; 5 μM DOX): higher than that in untreated A2780/T; intracellular accumulation of Flutax-2 (A2780/T cells [3]; Flutax-2 1 μM): higher than that in untreated A2780/T
CC(=O)O[C@H]1C(=O)[C@@]2(C)[C@H]([C@H](OC(=O)c3ccccc3)[C@]3(O)C[C@H](OC(=O)[C@H](O)[C@@H](NC(=O)c4ccccc4)c4ccccc4)C(C)=C1C3(C)C)[C@]1(OC(C)=O)CO[C@@H]1C[C@@H]2O [Paclitaxel]	1.89 ± 0.15 µM	2.51 ± 0.01 fold	0.75 ± 0.06 µM	5.65 ± 0.8 fold	0.34 ± 0.02 µM	22.33 ± 3.6 fold	0.09 ± 0.01 µM	1.00 fold	1.00 fold	–	–	–	501 fold	2.51 µM	–	EC50 (A2780/T cells [4]): 4.2 µM; G1 phase content (A2780 cells; 24 hours): 46.47%; G2-M content (A2780 cells; 24 hours): 31.9%; G1 phase content (A2780 cells; 48 hours): 15.57%; G2-M content (A2780 cells; 48 hours): 63.2%; G1 phase content (A2780 cells; 72 hours): 5.53%; G2-M content (A2780 cells; 72 hours): 80.07%; inhibition of colony formation, single agent (A2780/T cells [5]): no inhibition; G1 phase cells (A2780/T cells [6]): 72%; G2 phase cells (A2780/T cells [6]): 17%; Fold reversal (IC50 without / with nobiletin) ([1]; drug +0.5 μM nobiletin, listed as PTX): 2.51 fold; Fold reversal (IC50 without / with nobiletin) ([1]; drug +1.5 μM nobiletin, listed as PTX): 5.65 fold; Fold reversal (IC50 without / with nobiletin) ([1]; drug +4.5 μM nobiletin, listed as PTX): 22.33 fold; Fold reversal (IC50 without / with nobiletin) ([1]; drug +4.5 μM nobiletin, listed as paclitaxel): 22.33 fold; Fold reversal (IC50 without / with nobiletin) ([1]; drug +9 μM nobiletin): 62.88 ± 0.98 fold; IC50 ([1]; drug +9 μM nobiletin (N)): 0.03 ± 0.004 µM; Fold reversal (IC50 without / with nobiletin) ([1]; drug +9 μM nobiletin, listed as PTX): 62.88 fold; apoptosis induction, single treatment (A2780/T cells [7]): did not show apoptosis induction
O=c1[nH]cc(F)c(=O)[nH]1 [5-Fluorouracil]	134 ± 10.9 µM	1.26 ± 0.01 fold	–	1.99 ± 0.01 fold	–	7.94 ± 0.02 fold	16.8 ± 1.36 µM	1.00 fold	1.00 fold	132 ± 23.8 µM	26.1 ± 1.77 µM	159 ± 18.3 µM	–	–	79.8 ± 9.18 µM	Fold reversal (IC50 without / with nobiletin) ([1]; drug +4.5 μM nobiletin, listed as 5-fluorouracil): 7.94 fold
COc1cccc2c1C(=O)c1c(O)c3c(c(O)c1C2=O)C[C@@](O)(C(=O)CO)C[C@@H]3O[C@H]1C[C@H](N)[C@H](O)[C@H](C)O1 [Doxorubicin]	5.97 ± 0.49 µM	1.42 ± 0.23 fold	4.23 ± 0.35 µM	2.25 ± 0.37 fold	2.67 ± 0.22 µM	5.01 ± 0.01 fold	1.19 ± 0.1 µM	1.00 fold	1.00 fold	3.77 ± 0.3 µM	1.13 ± 0.18 µM	5.97 ± 0.49 µM	158 fold	–	1.89 ± 0.16 µM	Fold reversal (IC50 without / with nobiletin) ([1]; drug +4.5 μM nobiletin, listed as doxorubicin): 5.01 fold; IC50 ([2]; A2780/T, 48 h, drug +9 μM nobiletin (N)): 0.38 ± 0.04 µM
COc1cccc2c1C(=O)c1c(O)c3c(c(O)c1C2=O)C[C@@](O)(C(C)=O)C[C@@H]3O[C@H]1C[C@H](N)[C@H](O)[C@H](C)O1 [Daunorubicin]	10.1 ± 1.63 µM	1.68 ± 0.14 fold	5.97 ± 0.49 µM	3.55 ± 0.01 fold	2.84 ± 0.46 µM	14.17 ± 0.04 fold	0.71 ± 0.13 µM	1.00 fold	1.00 fold	–	–	–	–	11.9 ± 0.97 µM	–	Fold reversal (IC50 without / with nobiletin) ([1]; drug +4.5 μM nobiletin, listed as daunorubicin): 14.17 fold
